Source: article PMC10192568, “Comparison of pharmacokinetic profiles of seven major bioactive components in normal and non-alcoholic fatty liver disease (NAFLD) rats after oral administration of Ling-Gui-Zhu-Gan decoction by UPLC-MS/MS” (Frontiers in Pharmacology, 2023)
Where two headings read alike, the source gives them in different places.

Experiments:
[1] = Stability of the seven components in rat plasma QC samples; format: physicochemical; conditions: n = 6; for Stability during 24 h at 4°C, RE: auto sampler
Method: Stability refers to the ability of the components to retain their chemical properties in the matrix. To analyze the stability of all components in the plasma, six replicates of QC samples at three concentrations were hereby prepared under each condition. The stability of the QC samples at three concentrations was analyzed under different storage conditions: −80°C for 30 days, after three freeze–thaw cycles, and 24 h in an auto sampler at 4°C.

[2] = Pharmacokinetic study of LGZGD components in plasma of normal and NAFLD rats after oral administration (UPLC-MS/MS); format: in vivo, Male Sprague–Dawley rats; conditions: for AUC0-∞ value decreased / C max value decreased: NAFLD rats compared with normal rats; for AUC(0-inf) / AUC(0-t) / Cmax / Tmax / half-life / MRT last: Sprague-Dawley, rat; for MRT last: read-out: MRT0-t
Method: Male Sprague–Dawley rats, weighing 200–220 g, SPF grade, were purchased from Shanghai Sippr-BK laboratory animal Co. Ltd. (Shanghai, China) and raised in the Laboratory Animal Center of Shanghai University of Traditional Chinese Medicine. The rats were kept in an environmentally controlled condition: on a 12:12 h light–dark cycle (lights on at 7:00 a.m.) with regulated temperature and humidity, at a temperature of 22°C–24°C and a relative humidity of 60–65%. In the experiment, the rats in the normal group were fed a certified standard rat diet and tap water, while those in the model group were fed a high-fat diet for 8 weeks to construct the NAFLD model (high-fat diet: 2% cholesterol, 10% lard, 0.1% sodium cholate, 10% yolk powder, and 77.9% normal diet). The animal experiment program was approved by the Animal Committee of Shanghai University of Traditional Chinese Medicine (License No.: PZSHUTCM201016001).
An Agilent 1290 UPLC system was combined with an Agilent 6460 series MS/MS system (Agilent Technologies, Santa Clara, CA, United States) to quantify the analytes in the ESI-positive ionization mode. The mass spectrum conditions were as follows: a capillary voltage of 4,000 V; a gas flow rate of 10 L/min; a nebulizer of 30 psi; a gas temperature of 350°C; and a Delta EMV(+) of 200 V. Five microliters of the samples was injected into an Agilent SB-C18 column (2.1 mm × 50 mm, 1.8 μm particles). The analytes were separated using the gradient elution method, and the mobile phase was composed of water (0.05% V/V formic acid) (A) and acetonitrile (B) at a flow rate of 0.4 mL/min (0–1 min, 10–10% B; 1–5 min, 10–90% B; 5–7 min, 90–90% B; and 7–7.1 min, B 90–10%; rebalance for 2 min).
A plasma sample of 50 µL was placed in a 1.5 mL centrifuge tube with 10 µL of schisandrin (IS) solution (50 ng/mL) and mixed for 5 min. The samples were successively extracted with 500 µL of ethyl acetate and treated with 250 µL of methanol, which were then mixed for 5 min and centrifuged at 4°C for 10 min (at 18,000 rpm). All the supernatant was absorbed into another 1.5 mL centrifuge tube, dried under a gentle stream of nitrogen at 37°C, and then added with 50 µL of 50% methanol for reconstruction. After being centrifuged at 4°C for 10 min (at 18,000 rpm), 5 µL of the supernatant was extracted and injected into a chromatographic column for analysis, and the chromatograms were recorded.
The rats were randomly divided into the normal group and the model group. According to the preliminary experiment, the dose was adjusted to about eight times the normal dose ([Gu, 2020]; [Li et al., 2023]). […] The animal research program was approved by the Animal Committee of Shanghai University of Traditional Chinese Medicine. At 0, 0.083, 0.25, 0.5, 0.75, 1, 2, 4, 6, 8, 10, 12, 24, and 48 h after dosing, 150 µL blood samples were collected from the rats' orbital venous plexus into centrifuge tubes containing 10 IU of sodium heparin. After being centrifuged at 5,000 rpm (4°C) for 10 min, the plasma was transferred to 1.5 mL polypropylene tubes and stored at −80°C until the plasma samples were analyzed.
Important pharmacokinetic parameters, which included the maximum plasma concentration (C max), time to maximum concentration (T max), half-life (t 1/2), area under the curve (AUC0-t), and total area under the curve (AUC0-∞), were hereby calculated using the DAS 3.2.8 software. Meanwhile, the pharmacokinetic data of the normal and model rats were compared using the SPSS software (version 21.0). Besides, Spearman rank bivariate correlation coefficient was used to determine the correlation between AUC values and UGT1A1 and nine other transporters. All the calculated data were expressed as mean ± SD. When p < 0.05, the difference was considered significant and statistically significant; and when p < 0.01 or <0.001, the difference was considered very significant.

[3] = male, plasma, po, 23 g/kg, Model (NAFLD) group, male SD rats, oral LGZGD extract 23 g/kg, plasma, mean ± SD, n = 6
[4] = male, plasma, po, 23 g/kg, Normal group, male SD rats, oral LGZGD extract 23 g/kg, plasma, mean ± SD, n = 6
[5] = NAFLD rats compared with the normal group, oral LGZGD
[6] = Normal group, male SD rats, oral LGZGD extract 23 g/kg, plasma, mean ± SD, n = 6

Stability during 24 h at 4°C, RE ([1]; high QC level)	Stability during 24 h at 4°C, RE ([1]; low QC level)	Stability during 24 h at 4°C, RE ([1]; medium QC level)	Three freeze–thaw cycles, RE ([1]; high QC level)	−80°C for 30 days, RE ([1]; high QC level)	Three freeze–thaw cycles, RE ([1]; low QC level)	−80°C for 30 days, RE ([1]; low QC level)	Three freeze–thaw cycles, RE ([1]; medium QC level)	−80°C for 30 days, RE ([1]; medium QC level)	AUC0-∞ value decreased ([2]; oral LGZGD)	C max value decreased ([2]; oral LGZGD)	AUC(0-inf) [2, 3]	AUC(0-t) [2, 3]	Cmax [2, 3]	half-life [2, 3]	MRT last [2, 3]	AUC(0-inf) [2, 4]	AUC(0-t) [2, 4]	Cmax [2, 4]	MRT last [2, 4]	Structure (SMILES)	also measured
−3.3%	−1.6%	−5.6%	9.7%	2.7%	−5.9%	−1.0%	−3.7%	1.7%	70.8%	77.4%	40800 ± 25000 ng·h/mL	40700 ± 25100 ng·h/mL	2240 ± 1200 ng/mL	5.4 ± 1.4 h	16 ± 8 h	82700 ± 10000 ng·h/mL	81000 ± 10500 ng·h/mL	6420 ± 2240 ng/mL	13.7 ± 3.3 h	CC1(C)[C@@H](O[C@H]2O[C@H](C(=O)O)[C@@H](O)[C@H](O)[C@H]2O[C@@H]2O[C@H](C(=O)O)[C@@H](O)[C@H](O)[C@H]2O)CC[C@]2(C)[C@H]3C(=O)C=C4[C@@H]5C[C@@](C)(C(=O)O)CC[C@]5(C)CC[C@@]4(C)[C@]3(C)CC[C@@H]12 [Glycyrrhizic acid, glycyrrhizic acid]	Tmax [2, 3]: 8.1 ± 4.9 h; Tmax [2, 4]: 10.4 ± 1.7 h; half-life [2, 4]: 6.3 ± 3 h
−3.0%	1.4%	5.4%	4.1%	−1.2%	10.5%	−4.1%	−1.8%	3.1%	53.7%	63.8%	53400 ± 22100 ng·h/mL	52800 ± 22300 ng·h/mL	3740 ± 991 ng/mL	6 ± 3.4 h	10.1 ± 1.3 h	115000 ± 32900 ng·h/mL	115000 ± 32900 ng·h/mL	10300 ± 1850 ng/mL	7.7 ± 1.6 h	O=C1C[C@@H](c2ccc(O[C@@H]3O[C@H](CO)[C@@H](O)[C@H](O)[C@H]3O)cc2)Oc2cc(O)ccc21 [Liquiritin, liquiritin]	MRT0-t prolonged [2, 5]: 31.2%; t 1/2 [2, 6]: 5.2 ± 2.5 h; Tmax [2, 3]: 6.8 ± 4.1 h; Tmax [2, 4]: 4.8 ± 1.1 h

Structure (SMILES)	Stability during 24 h at 4°C, RE ([1]; high QC level)	Stability during 24 h at 4°C, RE ([1]; low QC level)	Stability during 24 h at 4°C, RE ([1]; medium QC level)	Three freeze–thaw cycles, RE ([1]; high QC level)	−80°C for 30 days, RE ([1]; high QC level)	Three freeze–thaw cycles, RE ([1]; low QC level)	−80°C for 30 days, RE ([1]; low QC level)	Three freeze–thaw cycles, RE ([1]; medium QC level)	−80°C for 30 days, RE ([1]; medium QC level)	AUC0-∞ value decreased ([2]; oral LGZGD)	C max value decreased ([2]; oral LGZGD)	AUC(0-inf) [2, 3]	AUC(0-t) [2, 3]	Cmax [2, 3]	half-life [2, 3]	MRT last [2, 3]	AUC(0-inf) [2, 4]	AUC(0-t) [2, 4]	Cmax [2, 4]	MRT last [2, 4]	also measured
O=C(/C=C/c1ccc(O[C@@H]2O[C@H](CO)[C@@H](O)[C@H](O)[C@H]2O)cc1)c1ccc(O)cc1O [Isoliquiritin, isoliquiritin]	−12.7%	1.3%	11.0%	3.9%	4.0%	−6.8%	−1.1%	−3.0%	−2.1%	65.8%	31.1%	56.9 ± 10.8 ng·h/mL	51.9 ± 7.8 ng·h/mL	4.2 ± 0.8 ng/mL	13.1 ± 7.5 h	15.5 ± 1.8 h	166 ± 10.5 ng·h/mL	108 ± 21.2 ng·h/mL	6.1 ± 1.8 ng/mL	19.8 ± 1.7 h	MRT decreased [2, 5]: 21.7%; Tmax [2, 6]: 0.6 ± 0.1 h; half-life [2, 4]: 9.2 ± 4.4 h
